According to patent publication US10941399B2, “Methods and compositions for gene-specific demethylation by DNA methyltransferase (DNMT)-RNA interaction” (Beth Israel Deaconess Medical Center, Inc., priority 2011, dated 2021):
Entries after “also recorded” stand apart in the source; their conditions may differ. [5mC] = 5-methylcytosine

Experiments:
DNMT1 = DNMT1 (Homo sapiens, UniProt P26358); experiment: Electrophoretic gel mobility shift assays (EMSA/REMSA) and Kd determination with purified DNMT1; type: binding; design: purchased BPS Bioscience Inc; details: for Kd: constant oligonucleotide concentration (1 nM) titrated with increasing DNMT1, nonlinear regression, read-out: dissociation constant (Kd)
Chain of DNMT1 (P26358 whole entry): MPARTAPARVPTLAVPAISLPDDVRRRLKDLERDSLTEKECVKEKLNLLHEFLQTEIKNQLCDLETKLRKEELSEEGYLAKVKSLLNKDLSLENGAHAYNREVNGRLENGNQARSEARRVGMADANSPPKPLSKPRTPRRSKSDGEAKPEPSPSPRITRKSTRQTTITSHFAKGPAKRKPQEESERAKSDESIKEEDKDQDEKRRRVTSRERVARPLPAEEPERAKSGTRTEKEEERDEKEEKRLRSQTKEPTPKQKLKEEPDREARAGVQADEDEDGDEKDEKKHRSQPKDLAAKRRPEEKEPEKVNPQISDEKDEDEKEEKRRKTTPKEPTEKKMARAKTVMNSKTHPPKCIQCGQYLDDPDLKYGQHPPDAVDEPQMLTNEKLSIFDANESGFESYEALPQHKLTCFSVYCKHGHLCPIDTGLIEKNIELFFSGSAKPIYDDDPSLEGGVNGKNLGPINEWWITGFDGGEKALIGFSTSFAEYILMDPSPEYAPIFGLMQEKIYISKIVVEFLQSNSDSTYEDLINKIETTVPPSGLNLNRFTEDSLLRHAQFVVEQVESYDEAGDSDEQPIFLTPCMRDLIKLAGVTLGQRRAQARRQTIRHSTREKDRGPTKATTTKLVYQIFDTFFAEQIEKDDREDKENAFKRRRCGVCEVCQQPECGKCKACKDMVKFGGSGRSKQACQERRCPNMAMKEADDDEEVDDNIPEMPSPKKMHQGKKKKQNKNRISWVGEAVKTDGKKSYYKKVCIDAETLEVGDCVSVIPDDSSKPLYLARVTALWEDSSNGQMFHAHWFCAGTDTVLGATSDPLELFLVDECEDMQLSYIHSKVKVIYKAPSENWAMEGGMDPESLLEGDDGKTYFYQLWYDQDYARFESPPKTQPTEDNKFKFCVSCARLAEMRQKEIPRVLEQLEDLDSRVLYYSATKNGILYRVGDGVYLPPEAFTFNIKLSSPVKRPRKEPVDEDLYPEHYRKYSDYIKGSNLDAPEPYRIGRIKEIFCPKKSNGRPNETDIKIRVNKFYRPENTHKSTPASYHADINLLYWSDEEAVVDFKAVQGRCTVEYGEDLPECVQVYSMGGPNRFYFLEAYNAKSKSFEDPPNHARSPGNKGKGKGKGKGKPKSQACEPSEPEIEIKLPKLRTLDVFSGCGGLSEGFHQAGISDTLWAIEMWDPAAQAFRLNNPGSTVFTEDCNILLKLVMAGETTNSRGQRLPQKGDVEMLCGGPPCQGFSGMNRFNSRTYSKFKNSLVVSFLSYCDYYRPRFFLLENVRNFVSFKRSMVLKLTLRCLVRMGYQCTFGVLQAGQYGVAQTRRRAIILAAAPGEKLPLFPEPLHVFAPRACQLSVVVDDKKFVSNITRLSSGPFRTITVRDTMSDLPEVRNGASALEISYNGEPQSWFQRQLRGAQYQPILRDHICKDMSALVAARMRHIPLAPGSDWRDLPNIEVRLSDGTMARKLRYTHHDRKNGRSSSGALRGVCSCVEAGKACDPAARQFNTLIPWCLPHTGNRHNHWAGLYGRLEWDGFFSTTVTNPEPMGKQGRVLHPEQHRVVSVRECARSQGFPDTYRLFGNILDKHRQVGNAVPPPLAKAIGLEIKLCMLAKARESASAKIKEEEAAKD
Description: Electrophoretic gel mobility shift assays (EMSAs) and Kd determination: DNA and RNA oligonucleotides (15 pmol) were end-labeled with [γ-32P] ATP (Perkin Elmer) and T4 polynucleotide kinase (New England Biolabs). Reactions were incubated at 37° C. for 1h and then passed through G-25 spin columns (GE Healthcare) according to the manufacturer's instructions to remove unincorporated radioactivity. Labeled samples were gel-purified on 10% polyacrylamide gels. Binding reactions were carried out in 10 μL volumes in the following buffer: 5 mM Tris pH 7.4, 5 mM MgCl2, 1 mM DTT, 3% v/v glycerol, 100 mM NaCl. Various amounts of purified DNMT1 protein (BPS Bioscience Inc., 0.021-0.156 μM) were incubated with 1.1 nM of 32P-labeled dsDNA and ss/ds RNAs. In the competitive assay, a fixed amount of protein and increasing amounts of competitors (dsDNA or poly (dI-dC)) were used. All reactions were assembled on ice and then incubated at room temperature. Samples were loaded onto 6% native polyacrylamide gels (0.5×TBE) at 4° C. for 3 h at 140 V. Gels were dried and exposed to X-ray film and a PhosphorImager screen. Data were analyzed with ImageQuant software. For affinity assays, the percent shifted species was determined as follows: the migration of the labeled DNA in this reaction was defined as zero percent shifted and the ratio of the PhosphorImager counts in the area of the lane above this band to the total counts in the lane was defined as background and subtracted from all other lanes. This band represented total input. Subsequent lanes containing DNMT1-nucleic acid complexes were treated identically, and the percentage complex formation was calculated as follows: [Input-(free probe for each lane+background/input)]. All experiments contained a control reaction lacking DNMT1. The percentage complex formation was plotted as a function of DNMT1 concentration using nonlinear regression analysis using Prism 4.0a.

HL-60 cells = experiment: DRB and ML-60218 treatment of HL-60 cells, transcript levels by Taqman qRT-PCR; type: cell-based, human
Description: qRT-PCR: Sybr green reactions were performed using iQ Sybr Green supermix (Biorad, Hercules, Calif.) using the following parameters: 95° C. (10 min.), 40 cycles of 95° C. (15 sec.) and 60° C. (1 min.), and 72° C. (1 min.). TaqMan analysis was performed using Hotstart Probe One-step qRT-PCR master mix (USB) at the following conditions: 50° C. (10 min.), 95° C. (2 min.), and then 40 cycles of 95° C. (15 sec.) and 60° C. (60 sec.). qRT PCR primers were located in the coding region for the mRNA (black double headed arrow) and after the polyA signal for the ecRNA (white double headed arrow) (FIG. 1A). The sequences of primers used for TaqMan real time PCR were as follows: human C/EBPa: Forward 5′-TCG GTG GACAAG AAC AG-3′ (SEQ ID NO:18), Reverse 5′-GCA GGC GGT CAT TG-3′ (SEQ ID NO:19), and Taqman Probe 5′-ACA AGGCCA AGC AGC GC-3′ (SEQ ID NO:20); ecRNA: Forward 5′-GGTTGTCTGTGGGCCAGGTCA-3′(SEQ ID NO:21), Reverse 5′-AGAGCTCATGAAAGTCAGGATTG-3′ (SEQ ID NO:22), and Taqman Probe 5′-AAT AAT ACAGCA TTT TCC CTG GCG G-3′(SEQ ID NO:23); human C/EBPγ: Forward: 5′-GGC TAG AGG AGC AGGTAC AT-3′ (SEQ ID NO:24), Reverse: 5′-GCCTGGGTATGGATAACACTA-3′ (SEQ ID NO:25), and Taqman Probe: 5′-CGACAC CAC TCA TGT CAA TGG CTG-3′ (SEQ ID NO:26); human TP73: ABI Cat. #Hs01060631_m1; 18S rRNA: ABI Cat. #4310893E; and human 5S rRNA: ABI Cat. #Hs02385257_g1. The sequences of primers used for real-time RT PCR (Sybr) were as follows: human C/EBPa: Forward: 5′-CCG CTC CTCCAC GCC TGT CCT TAG-3′ (SEQ ID NO:27) and Reverse: 5′-GCCCCACAGCCAGATCTCTAGGTC-3′ (SEQ ID NO:28); ecRNA: Forward: 5′-TCATGAGCTCTCCATCCATCCTGA-3′(SEQ ID NO:29) and Reverse: 5′-CTG GCCGAG GGT CCT GCT GGA ATC-3′ (SEQ ID NO:30); and β-ACTIN Promega Cat. #G5740.
Double thymidine block (early S-phase block): HL-60 cells were grown overnight to 70-80% confluence, washed twice with 1×PBS, and cultured in DMEM (10% FCS)+2.5 mM thymidine for 18 h (first block). Thymidine was washed out with 1×PBS, and cells were grown in DMEM (10% FCS). After 8 hours, cells were cultured in presence of thymidine for 18 h (second block) and then released as described. Synchrony was monitored by flow cytometry analysis of propidium iodide-stained cells using a LSRII flow cytometer (BD Biosciences) at the Harvard Stem Cell Institute/Beth Israel Deaconess Center flow cytometry facility.
DRB and ML-60218 treatment: After release from double thymidine block, HL-60 cells were treated with 100 μM of 5,6-Dichlorobenzimidazole 1-β-D-ribofuranoside (DRB) (Sigma Aldrich) for 1, 2, and 3 hours. HL-60 cells were treated with 25 μM ML-60218 (2-chloro-N[5-(5-chloro-3-methyl-1-benzothiophen-2-yl)-2-methylpyrazol-3-yl]benzenesulfonamide, Calbiochem®) for 24 hours. Total RNA was harvested as described above and expression levels of C/EBPa, ecRNA, and 5S were measured by Taqman qRT-PCR.

myeloma cells = details: cited from earlier work
[1] = 100 μM DRB, 1, 2, 3 h after release from double thymidine block

hmDNA: hemimethylated dsDNA probe (SEQ ID NOs:65, 72) (chain 1 CTGAGGCCTTGGCGAGGCTTCT; chain 2 AGAAGCCTCGCCAAGGCCTCAG; chain 1: DNA, [5mC] at 13, backbone and methylation of C not given here; chain 2: DNA, backbone not given here; listed as Homo sapiens)
Kd (DNMT1; EMSA): 140 nM

RNA: folded ssRNA oligonucleotide of C/EBPa ecRNA, positions 4627-4648 of SEQ ID NO:8 (SEQ ID NO:62) (CUGAGGCCUUGGCGAGGCUUCU; chemistry not given here; listed as Homo sapiens)
Kd (DNMT1; EMSA): 45 nM
DNMT1 concentration at which initial complex is formed (DNMT1; EMSA, increasing DNMT1 concentrations): < 0.013 µM
strength of DNMT1 complex with RNA compared to hmDNA and mDNA (DNMT1; ratio versus hmDNA and mDNA): 3 fold
strength of DNMT1 complex with RNA compared to umDNA (DNMT1; ratio versus umDNA): 2 fold

mDNA: methylated dsDNA probe (SEQ ID NOs:66, 73) (chain 1 CTGAGGCCTTGGCGAGGCTTCT; chain 2 AGAAGCCTCGCCAAGGCCTCAG; chain 1: DNA, [5mC] at 13, backbone not given here; chain 2: DNA, [5mC] at 9, backbone not given here; listed as Homo sapiens)
Kd (DNMT1; EMSA): 110 nM

R04: ssRNA oligonucleotide of C/EBPa ecRNA, positions 4777-4798 of SEQ ID NO:8 (SEQ ID NO:63), lacking stem-and-loop-like structures (UCACACACACCGCAGCUCCAGA; chemistry not given here; listed as Homo sapiens)
DNMT1 binding affinity in REMSA (in words) (DNMT1): did not display the same binding affinity as folded RNA; also recorded: lower DNMT1 affinity compared to R05

OC[C@H]1O[C@@H](n2cnc3cc(Cl)c(Cl)cc32)[C@H](O)[C@@H]1O [DRB, 5,6-Dichlorobenzimidazole 1-β-D-ribofuranoside]
C/EBPa mRNA expression level (HL-60 cells; [1]): strong down-regulation
ecRNA expression level (HL-60 cells; [1]): no decrease; also recorded: did not reduce

mutated R01: R01 with C to U substitutions in CpG dinucleotides (SEQ ID NO:69) (CUGGGAUGCAGGUGGUGUCAGGC; chemistry not given here; listed as Homo sapiens)
DNMT1 binding after C to U substitution of CpG dinucleotides (DNMT1; stem-and-loop-like structure preserved): not affected

Cc1c(-c2cc(NS(=O)(=O)c3ccccc3Cl)n(C)n2)sc2ccc(Cl)cc12 [ML-60218, 2-chloro-N[5-(5-chloro-3-methyl-1-benzothiophen-2-yl)-2-methylpyrazol-3-yl]benzenesulfonamide]
5S rRNA level (HL-60 cells; 25 μM ML-60218, 24 hours): significantly reduced
C/EBPa mRNA level (HL-60 cells; 25 μM ML-60218, 24 hours): little effect; also recorded: only moderately affected
ecRNA level (HL-60 cells; 25 μM ML-60218, 24 hours): marked down-regulation; also recorded: significantly reduced

NCCCNCCCCNCCCN [spermine]
effect of spermine on RNA-DNMT1 binding (DNMT1; REMSA with increasing concentrations of spermine): Only a thousand-fold molar excess of spermine began to moderately affect the binding; also recorded: no significant changes in binding were observed

Nc1ncn([C@H]2C[C@H](O)[C@@H](CO)O2)c(=O)n1 [5-aza-2′-deoxycytidine]
PU.1 expression (myeloma cells): upregulation
growth of myeloma cells (myeloma cells): growth arrest

umDNA: unmethylated dsDNA probe (SEQ ID NOs:64, 71) (chain 1 CTGAGGCCTTGGCGAGGCTTCT; chain 2 AGAAGCCTCGCCAAGGCCTCAG; DNA, backbone not given here; listed as Homo sapiens)
Kd (DNMT1; EMSA): 82 nM
